In patent US20190209581A1, “DOSAGE REGIMEN FOR TREATMENT OF SOLID TUMORS” (Eli Lilly and Company, priority 2016, published 2019):
“Also recorded” adds a separate entry of the source.

Experiments:
[1] = system: Dogs (beagle); assay: Toxicity study in dogs, oral gavage, daily for 6 days or every other day for 3 doses; assay type: in vivo, dog; settings: for Survival: dogs
Protocol: (§1) A study is carried out to assess the Toxicity and Toxicokinetics of 4,4,4-trifluoro-N-[(1S)-2-[[(7S)-5-(2-hydroxyethyl)-6-oxo-7H-pyrido[2,3-d][3]benzazepin-7-yl]amino]-1-methyl-2-oxo-ethyl]butanamide in dogs given oral gavage doses of 0 or 1.3 mg/kg once daily for 6 days or 0.3 or 3 mg/kg every other day for a total of 3 doses. 4,4,4-Trifluoro-N-[(1S)-2-[[(7S)-5-(2-hydroxyethyl)-6-oxo-7H-pyrido[2,3-d][3]benzazepin-7-yl]amino]-1-methyl-2-oxo-ethyl]butanamide is combined with a vehicle comprising 1% carboxymethylcellulose sodium, 0.25% polysorbate 80 and 0.05% Dow Corning® Antifoam 1510-US in purified water. Dogs (beagle), Covance Research Products, 1 animal/sex/group are fed daily (soon after dosing) and are fasted overnight prior to scheduled chemistry blood collections and necropsy. The test compound is administered by oral gavage in a volume of 2 mL/kg body weight. The duration of the study for all groups is 6 days.
Groups 01 and 04: At a minimum, observations are recorded daily before dosing, approximately 1 hour postdose, and in the afternoon, with the following exception: afternoon clinical observations are not recorded on weekends.
Groups 02 and 03: At a minimum, observations are recorded before dosing, approximately 1 hour postdose, and in the afternoon on Days 2 and 6; before dosing and approximately 1 hour postdose on Day 4; and at approximately the same times as Groups 01 and/or 04 on Days 3, 5, and 7.
Animals are weighed on Days 1 and 7.
A qualitative assessment of food consumption is made each day by visual estimation of the amount of food remaining (recorded in increments of 25%).
Groups 01 and 04: Blood samples are collected before dosing on Day 1 and on Day 7 (not dosed on Day 7).
Groups 02 and 03: Blood samples are collected before dosing on Days 1 and 6.
Urine samples are collected from all animals by cystocentesis at the scheduled necropsy.

[2] = Toxicokinetics in Beagle dogs; assay type: in vivo, dog; settings: for Cmax: beagle, po
Protocol: as §1
Groups 01 and 04, Blood is collected at the following times relative to dosing on Day 1: 0.5, 1, 2, 4, 8, and 24 hours postdose.
Groups 02 and 04: Blood is collected at the following times relative to dosing on Days 2 and 6: 0 (predose; Day 6 only), 0.5, 1, 2, 4, 8, 24, 30, and 48 hours postdose.

[3] = Toxicokinetics in rats; assay type: in vivo, rat
Protocol: A study is carried out to assess the toxicity and toxicokinetics of 4,4,4-Trifluoro-N-[(1S)-2-[[(7S)-5-(2-hydroxyethyl)-6-oxo-7H-pyrido[2,3-d][3]benzazepin-7-yl]amino]-1-methyl-2-oxo-ethyl]butanamide in rats given oral gavage doses of 0, 1.3, or 4.3 mg/kg once daily for 2 weeks or 1, 3, 10, or 30 mg/kg 3 times/week for 2 weeks.
4,4,4-Trifluoro-N-[(1S)-2-[[(7S)-5-(2-hydroxyethyl)-6-oxo-7H-pyrido[2,3-d][3]benzazepin-7-yl]amino]-1-methyl-2-oxo-ethyl]butanamide is combined with a vehicle comprising 1% carboxymethylcellulose sodium, 0.25% polysorbate 80 and 0.05% Dow Corning® Antifoam 1510-US in purified water. Sprague Dawley CD®/IGS rats (crl:CD(SD)), International Genetic Standardization (IGS) 7-9 week old rats, 3/sex/group, Charles River Laboratories, Inc, are used for the study. Animals are fed ad libitum with 12 hours light, 12 hours dark cycle maintained in ventilated stainless-steel racks at an ambient temperature of 22.2+/[…] and relative humidity of 30% to 70%. The test compound is dosed according to Table 1. The test compound is administered by oral gavage in a volume of 10 mL/kg body weight. The duration of the study for all groups is 14 days.
Additional Groups of animals 3/sex/group (Groups 08, 09, and 12) and 3 females/group (Groups 10, 11, and 13) are dosed for toxicokinetic evaluations. For Groups 08, 09, and 10, blood is collected from each animal at the following times relative to dosing on Days 3 and 14: 0 (predose; Day 14 only), 0.5, 1, 2, 4, 8, 24, 30, and 48 hours postdose. For Group 11, blood is collected from each animal at the following times relative to dosing on Day 3: 0.5, 1, 2, 4, 8, 24, 30, and 48 hours postdose. For Group 12, blood is collected from each animal at the following times relative to dosing on Days 1 and 14: 0 (predose; Day 14 only), 0.5, 1, 2, 4, 8, and 24 hours postdose. For Group 13 blood is collected from each animal at the following times relative to dosing on Day 1: 0.5, 1, 2, 4, 8, and 24 hours postdose. Groups 08 through 13 are used for toxicokinetic evaluations. […]

[4] = Beagle dog, single oral dose 1.3 mg/kg, Subject 0007_M
[5] = Beagle dog, single oral dose 1.3 mg/kg, Subject 0008_F
[6] = Beagle dogs, multiple oral doses (3 doses/week), 0.3 mpk, mean n = 2
[7] = Beagle dogs, multiple oral doses (3 doses/week), 3 mpk, mean n = 2
[8] = Beagle dogs, single oral dose 1.3 mg/kg, Mean, n = 2
[9] = Beagle dogs, single oral dose, 0.3 mpk, mean n = 2
[10] = Beagle dogs, single oral dose, 3 mpk, mean n = 2

C[C@H](NC(=O)CCC(F)(F)F)C(=O)N[C@@H]1C(=O)N(CCO)c2ncccc2-c2ccccc21 [Compound 1, 4,4,4-trifluoro-N-[(1S)-2-[[(7S)-5-(2-hydroxyethyl)-6-oxo-7H-pyrido[2,3-d][3]benzazepin-7-yl]amino]-1-methyl-2-oxo-ethyl]butanamide]
Compound-related signs ([1]; both, beagle, dog, in vivo, 1.3 mg/kg, 6 days): lateral recumbency and labored respiration for the female on Day 7, decreased activity for both animals on Days 6 and 7, and dehydration (decreased skin elasticity) for both animals on Day 7
Food consumption ([1]; dog, in vivo): Decreased food consumption also occurred in all compound-treated groups
Gastrointestinal toxicity, daily versus three times/week at same total weekly dose ([1]; dog, in vivo): more severe gastrointestinal toxicity compared to three times/week dosing
Tolerability of once daily administration at same total weekly dose ([1]; dog, in vivo): once daily administration is not tolerated
Compound-related signs ([1]; dog, in vivo, 0.3 mg/kg): mucoid, and watery feces
Pathology findings ([1]; dog, in vivo, 0.3 mg/kg): adverse inflammatory changes in the large intestine and evidence of systemic inflammation
Intestinal changes ([1]; dog, in vivo, 1.3 mg/kg): up to marked mucoid enteropathy with red fluid intestinal contents, erosion, ulceration, and mostly neutrophilic mixed inflammation
Other symptoms (feces) ([1]; dog, in vivo, 1.3 mg/kg): red, dark (female only), mucoid, and watery (female only), feces
Compound-related signs ([1]; dog, in vivo, 3 mg/kg): red (male only), mucoid, and watery (male only), feces
Survival ([1]; 1.3 mg/kg daily): euthanized following 6 daily doses due to poor condition
Survival ([1]; 0.3 or 3 mg/kg 3 times/week (Days 2, 4, and 6)): survived until the scheduled termination; also recorded: survived until the scheduled necropsy
AUC [2, 4]: 4030 ng·h/mL
Tmax [2, 4]: 30 min
AUC [2, 5]: 4500 ng·h/mL
Tmax [2, 5]: 30 min
AUC [2, 6]: 3070 ng·h/mL
Tmax [2, 6]: 45 min
AUC [2, 7]: 14400 ng·h/mL
Tmax [2, 7]: 45 min
AUC [2, 8]: 4270 ng·h/mL
Tmax [2, 8]: 30 min
AUC [2, 9]: 1290 ng·h/mL
Tmax [2, 9]: 30 min
AUC [2, 10]: 5860 ng·h/mL
Tmax [2, 10]: 30 min
Cmax ([2]; both sexes, dog, blood, 1.3 mg/kg, Beagle dogs, single oral dose 1.3 mg/kg, Mean, n = 2): 1940 ng/mL
Cmax ([2]; both sexes, dog, in vivo, 0.3 mg/kg, Beagle dogs, multiple oral doses (3 doses/week), 0.3 mpk, mean n = 2): 2460 ng/mL
Cmax ([2]; both sexes, dog, in vivo, 0.3 mg/kg, Beagle dogs, single oral dose, 0.3 mpk, mean n = 2): 309 ng/mL
Cmax ([2]; both sexes, dog, in vivo, 3 mg/kg, Beagle dogs, multiple oral doses (3 doses/week), 3 mpk, mean n = 2): 4530 ng/mL
Cmax ([2]; both sexes, dog, in vivo, 3 mg/kg, Beagle dogs, single oral dose, 3 mpk, mean n = 2): 2730 ng/mL
24 hour drug concentrations ([2]; dog, daily and TIW regimens): minimal
Cmax ([2]; female, dog, blood, 1.3 mg/kg, Beagle dog, single oral dose 1.3 mg/kg, Subject 0008_F): 2070 ng/mL
Cmax ([2]; male, dog, blood, 1.3 mg/kg, Beagle dog, single oral dose 1.3 mg/kg, Subject 0007_M): 1800 ng/mL
24 hour drug concentrations ([3]; rat, daily and TIW regimens): minimal
Accumulation and differences between sexes in exposure ([3]; rats, oral gavage): No accumulation or major differences between sexes
Exposure (AUC0-24 hr) versus dose ([3]; rats, oral gavage, following both single and multiple doses): increased in a roughly linear and dose-proportional manner
